One assay relates to Aβ42. Nature of the assay: Amyloidβ peptide release (Aβ42) assay, AlphaLisa on supernatant of APPswe-HEK cells. It is filed as cell-based. To be noted: Homo sapiens, 24 hours incubation with compound, read-out: Ab42 IC50 Ranges. On the procedure: (§1) Amyloidβ Peptide Release (Aβ42 & AβTotal) Assay to Determine IC50 Values.
(§2) Amyloidβ peptide release (Aβ42 & AβTotal) assay are performed in 384 well microtiter plates (Perkin Elmer AlphaPlate #6008350) in a final volume of 20 μl, using supernatant coming from APPswe-HEK cells exposed to test compounds. Compounds are dissolved in and diluted in 100% DMSO and incubated with APPswe-HEK cells for 24 hours a 37° C. in 5% CO2. The supernatant from APPswe-HEK cells are mixed with antibodies: for Aβ42 detection: AlphaLisa Amyloid β 1-42 Kit (Perkin Elmer AL203L) Anti-Amyloid β1-42-specific antibody acceptor beads, biotinylated anti-Amyloid “β1-42” antibody and streptavidin (SA) donor beads diluted in AlphaLisa buffer (to the instructions of the supplier). For Aβ total detection: Custom Anti-Amyloid βtotal acceptor beads (6E10 acceptor beads), biotinylated anti-Amyloid “β1-42” antibody (Perkin Elmer AL203L) and streptavidin (SA) donor beads diluted in AlphaLisa buffer (to the instructions of the supplier). After addition of supernatant to the antibody mix, the assay is incubated 4 h and 30 minutes. AmyloidP peptide release (Aβ42 & AβTotal) is measured with a Pherastar FS (BMG) multimode reader using the alphascreen module.
For orientation: Alpha assays give light when donor and acceptor beads are brought close together.

For a further assay, the system named is AβTotal. Nature of the assay: Amyloidβ peptide release (AβTotal) assay, AlphaLisa on supernatant of APPswe-HEK cells. It is filed as cell-based, human. As to conditions: 24 hours, ratio Abtot versus Ab42. On the procedure:
as §1, §2

Some results are limits rather than exact numbers.

Data on 11 molecules can be found in patent US9527853B2, “Fused triazole derivatives as gamma secretase modulators” (Ares Trading S.A., priority 2012, dated 2016).

One may read the IC50 as the midpoint of a concentration-inhibition curve.

`COc1cc(NC(=O)c2nnn3c2CCC3c2ccc(Cl)cc2)ccc1-n1cnc(C)c1` (stereo not shown) [Example 28, 6-(4-chlorophenyl)-N-(3-methoxy-4-(4-methyl-1H-imidazol-1-yl)phenyl)-5,6-dihydro-4H-pyrrolo[1,2-c][1,2,3]triazole-3-carboxamide]: the IC50 in the assay with Aβ42 was no more than 150 nM. Also, the Abtot/Ab42 selectivity ranges entry with AβTotal was “b (b: 100 fold > selectivity ≧ 50 fold)”.
Taken in the same sequence, the figures for `Cc1cc(-c2ccc(NC(=O)c3nnn4c3CCCC4c3ccc(F)cc3)cc2)ccn1` (stereo not shown) [Example 21, 7-(4-fluorophenyl)-N-(4-(2-methylpyridin-4-yl)phenyl)-4,5,6,7-tetrahydro-[1,2,3]triazolo[1,5-a]pyridine-3-carboxamide] were less than 1000 nM and “d (d: 10 fold > selectivity)”.
Consider `COc1nc(NC(=O)c2nnn3c2CCC3c2ccc(Cl)cc2)ccc1-n1cnc(C)c1` (stereo not shown) [Example 29, 6-(4-chlorophenyl)-N-(6-methoxy-5-(4-methyl-1H-imidazol-1-yl)pyridin-2-yl)-5,6-dihydro-4H-pyrrolo[1,2-c][1,2,3]triazole-3-carboxamide], for which, in the assay on Aβ42, the IC50 is less than 1000 nM. For the same molecule, in the assay with AβTotal, the Abtot/Ab42 selectivity ranges entry is “a (a: selectivity ≧ 100 fold)”.
On to `Cc1cc(-c2ccc(Nc3nnn4c3CCC4c3ccc(Cl)cc3)cc2)ccn1` (stereo not shown) [Example 9], for which, in the assay with Aβ42, the half-inhibitory concentration (IC50) is 150 to 500 nM. Moreover, the Abtot/Ab42 selectivity ranges entry in the assay on AβTotal is listed as “a (a: selectivity ≧ 100 fold)”.
Taken in the same sequence, the figures for `COc1cc(C(=O)Nc2nnn3c2CCCC3c2ccc(Cl)c(Cl)c2)ccc1-n1cnc(C)c1` (stereo not shown) [Example 41, N-(7-(3,4-dichlorophenyl)-4,5,6,7-tetrahydro-[1,2,3]triazolo[1,5-a]pyridin-3-yl)-3-methoxy-4-(4-methyl-1H-imidazol-1-yl)benzamide] were 150 to 500 nM and “b (b: 100 fold > selectivity ≧ 50 fold)”.
On to `COc1cc(Nc2nnn3c2CCCC3c2ccc(F)cc2Cl)ccc1-n1cnc(C)c1` (stereo not shown) [Example 1, 7-(2-chloro-4-fluorophenyl)-N-(3-methoxy-4-(4-methyl-1H-imidazol-1-yl)phenyl)-4,5,6,7-tetrahydro-[1,2,3]triazolo[1,5-a]pyridin-3-amine], for which, in the assay on Aβ42, the 50% inhibitory concentration (IC50) was in the range of 150 to 500 nM. For the same molecule, in the assay with AβTotal, the Abtot/Ab42 selectivity ranges result is listed as “b (b: 100 fold > selectivity ≧ 50 fold)”.
Regarding `Cc1cn(-c2ccc(NC(=O)c3nnn4c3CCC4c3ccc(Cl)cc3)cc2F)cn1` (stereo not shown) [Example 26, 6-(4-chlorophenyl)-N-(3-fluoro-4-(4-methyl-1H-imidazol-1-yl)phenyl)-5,6-dihydro-4H-pyrrolo[1,2-c][1,2,3]triazole-3-carboxamide], the IC50 in the assay with Aβ42 is 150 to 500 nM. The Abtot/Ab42 selectivity ranges result in the assay on AβTotal is “b (b: 100 fold > selectivity ≧ 50 fold)”.
Taken in the same sequence, the figures for `COc1cc(NC(=O)c2nnn3c2COCC3c2ccc(Cl)cc2)ccc1-n1cnc(C)c1` (stereo not shown) [Example 38, 7-(4-chlorophenyl)-N-(3-methoxy-4-(4-methyl-1H-imidazol-1-yl)phenyl)-6,7-dihydro-4H-[1,2,3]triazolo[5,1-c][1,4]oxazine-3-carboxamide] were 150 to 500 nM and “b (b: 100 fold > selectivity ≧ 50 fold)”.
As for `COc1cc(C(=O)Nc2nnn3c2CCC3c2ccc(Cl)c(Cl)c2)ccc1-n1cnc(C)c1` (stereo not shown) [Example 45], in the assay with Aβ42, the IC50 fell in the range of 150 to 500 nM. In addition, the Abtot/Ab42 selectivity ranges entry in the assay with AβTotal is listed as “c (c: 50 fold > selectivity ≧ 10 fold)”.
Consider `COc1cc(NC(=O)c2nnn3c2CCCC3c2ccc(F)cc2)ccc1-n1cnc(C)c1` (stereo not shown) [Example 20, 7-(4-fluorophenyl)-N-(3-methoxy-4-(4-methyl-1H-imidazol-1-yl)phenyl)-4,5,6,7-tetrahydro-[1,2,3]triazolo[1,5-a]pyridine-3-carboxamide], for which, in the assay on Aβ42, the IC50 is 150 to 500 nM. For the same molecule, the Abtot/Ab42 selectivity ranges entry with AβTotal is listed as “b (b: 100 fold > selectivity ≧ 50 fold)”.
Turning to `COc1cc(C(=O)Nc2nnn3c2CCCC3c2ccc(F)cc2)ccc1-n1cnc(C)c1` (stereo not shown) [Example 43, N-(7-(4-fluorophenyl)-4,5,6,7-tetrahydro-[1,2,3]triazolo[1,5-a]pyridin-3-yl)-3-methoxy-4-(4-methyl-1H-imidazol-1-yl)benzamide], the IC50 with Aβ42 was less than 1000 nM. Further, in the assay with AβTotal, the Abtot/Ab42 selectivity ranges entry is recorded as “a (a: selectivity ≧ 100 fold)”.
